According to article PMC12983307 (Journal of the American Chemical Society, 2026):
Bridge positions count the residues as written; N and C are the ends. Peptide text beside a SMILES is read from it.

Target: AgrC (Staphylococcus aureus, UniProt O07911)
Assay: fluorescence polarization displacement of TAMRA-AIP-III D4A from AgrC nanodiscs
Format: binding
Conditions: read-out: % reduction in polarization at 10 μM

Chain of AgrC (O07911 entry or part of it): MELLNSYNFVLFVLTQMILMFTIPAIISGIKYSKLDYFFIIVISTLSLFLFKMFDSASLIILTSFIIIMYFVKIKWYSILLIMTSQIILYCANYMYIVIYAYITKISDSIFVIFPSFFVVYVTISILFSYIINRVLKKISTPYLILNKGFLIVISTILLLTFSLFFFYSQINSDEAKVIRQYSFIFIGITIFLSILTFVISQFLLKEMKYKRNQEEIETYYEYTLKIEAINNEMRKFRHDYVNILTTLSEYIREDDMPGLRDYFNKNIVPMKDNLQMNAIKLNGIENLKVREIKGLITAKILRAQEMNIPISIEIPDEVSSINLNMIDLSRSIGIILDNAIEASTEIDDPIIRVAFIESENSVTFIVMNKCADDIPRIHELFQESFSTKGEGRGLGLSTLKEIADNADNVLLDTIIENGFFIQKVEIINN

Q: How did the inhibition at 10 µM turn out when CC[C@H](C)[C@@H]1NC(=O)[C@H](Cc2ccccc2)NC(=O)[C@H](CC(=O)O)NC(=O)[C@@H](NC(=O)[C@@H](NC(=O)[C@H](CO)NC(=O)[C@@H](N)Cc2ccc(O)cc2)[C@@H](C)O)CSC(=O)[C@H](CCSC)NC1=O [AIP-I] (H-YSTCDFIM; thioester 4-C) was run?
A: 62%
